According to patent publication US12560609B2, “Biomarkers predictive of cancer cell response to ML329 or a derivative thereof” (Dana-Farber Cancer Institute, Inc., priority 2018, dated 2026):
One block for each compound: values may come before it.

Experiments:
CK2 [1] = molecular target: T1, CK2 (Homo sapiens, UniProt P19784+P68400); experiment: SAR of ML329 derivatives: NQO1-dependent CK2 inhibitors; type: cell-based; settings: FIG. 21
T1 construct: endogenous in cells

WM266.4 cells = experiment: WM266.4 melanoma xenograft, tumor volume; type: in vivo; settings: NSG mice xenografted with WM266.4 cells; 10 mg/kg twice daily
[2] = tested on: KEAP1-mutant lung cancer cells; experiment: Sensitivity of wild-type and KEAP1-mutated lung cancer cell lines to ML329; type: cell-based; settings: sensitive cell lines had IC50<10 μM (FIG. 35B)
Method: ML329 (4-[(1,4-dioxo-1,4-dihydronapthalen-2-yl)amino]benzenesulfonamide; […]) is a small molecule that was initially identified as an inhibitor of microphthalmia-associated transcription factor (MITF) (FIGS. 1-6). Briefly, Sk-MEL-5 melanoma cells expressing the promoter of MITF target TRPM1, upstreatm of a luciferase gene, were screened with a library of 331,578 compounds. Secondary screening was performed in two MITF-dependent melanoma cell links (SK-MEL-5 and MALME) and one non-MITF dependent cell line (A375). Candidate hits were tested for their effects on MITF target genes by qPCR. BRD-K45681478 was prioritized for medicinal chemistry. The lead compounds ML329 was used in subsequent studies. […] CK2 is an essential kinase and its reduction/inhibition is lethal (FIG. 11 and FIG. 12). Experiments were performed to determine that ML329 is bioreduced by an enzyme called NQO1, which is preferentially expressed in some cancer types, especially melanoma (FIGS. 13-15). Since ML329 is converted by cancer cells into an active form, it can avoid effects on normal cells. NQO1 is necessary and sufficient for the activity of ML329, thus enabling targeting of CK2 specifically to cancers with high NQO1 expression (FIGS. 16-18). […] Greater than 90% of KEAP1-mutant lung cancers were determined to be sensitive to ML329 (FIG. 20).

489 cancer cell lines = experiment: PRISM viability screen of 489 cancer cell lines; type: cell-based; settings: 489 cell lines, FIG. 30
Method: Negative odds are associated with sensitivity to ML329 whereas positive odds are associated with insensitivity to ML329.
Strictly Standardized Mean Difference (SSMD) was determined for each cell line. Cell lines with SSMD<2 were filtered out. All cell lines tested had SSMD>2.

MITF = experiment: qPCR of MITF mRNA and MITF target genes; type: cell-based; settings: FIG. 22
Excerpt: FIG. 26A-FIG. 26H show the results of a small molecule screen to identify regulators of lineage-specific melanoma oncogene MITF. […] SK-MEL-5 cells stably expressing the TRPM1 promoter fused to the luciferase gene were screened with 331,578 compounds. Secondary screens of putative hits including evaluating cytotoxicity in 2 MITF-dependent cell lines (SK-MEL-5, MALME) and 1 MITF-independent cell line (A375M) and evaluation the effect of candidate hits on the mRNA of MITF and target genes. […] BRD-K45681478 was the lead hit, which was modified by structure-function analysis to generate the compound ML329. FIG. 26B show cell number after 48 h treatment of melanoma cell lines (red) compared to non-melanoma cell lines (black) with ML329. […] MITF-dependent cell lines are depicted in green, whereas the MITF-independent cell line is depicted in red.
ML329 (4-[(1,4-dioxo-1,4-dihydronapthalen-2-yl)amino]benzenesulfonamide; KUC114363) is a small molecule that was initially identified as an inhibitor of microphthalmia-associated transcription factor (MITF) (FIGS. 1-6). Briefly, Sk-MEL-5 melanoma cells expressing the promoter of MITF target TRPM1, upstreatm of a luciferase gene, were screened with a library of 331,578 compounds. […] Greater than 90% of KEAP1-mutant lung cancers were determined to be sensitive to ML329 (FIG. 20).

Nqo1 = Nqo1 (Homo sapiens, UniProt P15559); experiment: Reduction of ML329 by Nqo1 in vitro; type: biochemical; settings: FIG. 24D
Chain of Nqo1 (P15559 whole entry, species assumed): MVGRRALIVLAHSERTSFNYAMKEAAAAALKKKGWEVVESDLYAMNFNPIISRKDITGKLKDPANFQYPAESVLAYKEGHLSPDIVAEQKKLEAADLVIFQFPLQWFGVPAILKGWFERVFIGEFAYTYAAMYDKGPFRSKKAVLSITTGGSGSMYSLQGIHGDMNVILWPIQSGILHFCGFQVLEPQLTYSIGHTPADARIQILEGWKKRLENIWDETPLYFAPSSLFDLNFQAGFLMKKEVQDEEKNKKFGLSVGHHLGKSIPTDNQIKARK

CK2 [3] = molecular target: CK2 (Homo sapiens, UniProt P68400); experiment: CK2 activity in vitro, with or without Nqo1; type: biochemical; settings: for requirement of Nqo1 for inhibition of CK2 in vitro: FIG. 24E, 24F
Chain of CK2 (Homo sapiens, UniProt P68400) (P68400 whole entry): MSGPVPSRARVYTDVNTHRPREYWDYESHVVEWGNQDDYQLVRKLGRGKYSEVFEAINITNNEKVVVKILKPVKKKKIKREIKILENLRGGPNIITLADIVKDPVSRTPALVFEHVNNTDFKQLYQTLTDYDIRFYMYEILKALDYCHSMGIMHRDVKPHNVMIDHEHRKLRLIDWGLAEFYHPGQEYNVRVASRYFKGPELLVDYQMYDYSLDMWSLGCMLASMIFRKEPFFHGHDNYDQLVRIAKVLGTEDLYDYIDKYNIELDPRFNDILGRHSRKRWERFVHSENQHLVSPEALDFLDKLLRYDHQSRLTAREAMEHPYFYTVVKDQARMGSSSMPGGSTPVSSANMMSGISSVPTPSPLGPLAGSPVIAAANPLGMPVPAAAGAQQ

[4] = tested on: CK2alpha and CK2alpha prime; experiment: Target identification: bead pull-down from SK-MEL-5 lysate with ML329 competition, mass spectrometry; type: binding
Excerpt: Whole protein lysates were generated from SK-MEL-5 melanoma cells and mixed with either KUC114363 (a derivative of ML329 conjugated to agarose beads) or KUC114363 along with competing amounts of soluble ML329. Mass spectrometry was used to identify proteins that bound KUC114363 whose binding was diminished upon treatment with ML329. […] Kinases found to bound are marked with red circles, where larger circles indicate higher-affinity binding. KINOMEScan image was generated using TREEspot™ Software Tool and reprinted with permission from KINOMEscan®, a division of DiscoveRx Corporation, © DISCOVERX CORPORATION 2010.

T1 sequence (P68400 whole entry): as above
T1 sequence (P19784 whole entry): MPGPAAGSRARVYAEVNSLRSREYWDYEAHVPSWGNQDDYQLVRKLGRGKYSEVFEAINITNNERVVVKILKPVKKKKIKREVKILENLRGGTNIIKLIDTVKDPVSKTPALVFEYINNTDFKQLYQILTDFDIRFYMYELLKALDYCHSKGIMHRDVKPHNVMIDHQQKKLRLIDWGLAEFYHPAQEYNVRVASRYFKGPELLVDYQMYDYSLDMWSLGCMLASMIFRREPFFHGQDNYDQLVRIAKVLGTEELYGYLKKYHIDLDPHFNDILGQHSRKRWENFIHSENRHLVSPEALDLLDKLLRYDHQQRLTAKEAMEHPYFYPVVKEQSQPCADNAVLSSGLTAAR
T1 sequence (P67870 whole entry partner): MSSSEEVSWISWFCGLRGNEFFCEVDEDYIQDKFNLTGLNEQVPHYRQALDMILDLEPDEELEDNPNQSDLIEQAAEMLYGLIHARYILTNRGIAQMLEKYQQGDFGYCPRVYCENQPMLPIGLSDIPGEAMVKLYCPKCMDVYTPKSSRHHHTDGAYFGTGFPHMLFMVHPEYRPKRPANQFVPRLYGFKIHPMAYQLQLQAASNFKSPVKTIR

SMILES: NS(=O)(=O)c1cccc(NC2=CC(=O)c3ccccc3C2=O)c1 [SCAP105461]
potency and selectivity as NQO1-dependent CK2 inhibitor (SAR, relative to ML329) (CK2 [1]): more potent and selective NQO1-dependent CK2 inhibitors

substrate of Nqo1 in vitro (Nqo1): direct substrate of Nqo1 in vitro | requirement of Nqo1 for inhibition of CK2 in vitro (CK2 [3]): Nqo1 is required | binding to CK2 subunits in vitro [4]: binds to CK2alpha and CK2alpha prime
SMILES: NS(=O)(=O)c1ccc(NC2=CC(=O)c3ccccc3C2=O)cc1 [ML329, 4-[(1,4-dioxo-1,4-dihydronapthalen-2-yl)amino]benzenesulfonamide]
in vivo activity in melanoma (tumor volume) (WM266.4 cells): has in vivo activity in melanoma that requires NRF2/NQO1 | share of KEAP1-mutant lung cancers sensitive to ML329 [2]: Greater than 90% | selectivity of cytotoxicity across cancer cell lines (489 cancer cell lines): selectively cytotoxic in melanoma cells | effect on MITF mRNA and target gene expression (MITF): suppresses MITF mRNA and target gene expression | inhibition of CK2 activity (CK2 [3]; in vitro): inhibits CK2 activity in an ATP-competitive manner

SMILES: NC(=O)c1ccc(NC2=CC(=O)c3ccccc3C2=O)cc1 [SCAP105463]
potency and selectivity as NQO1-dependent CK2 inhibitor (SAR, relative to ML329) (CK2 [1]): more potent and selective NQO1-dependent CK2 inhibitors

requirement of Nqo1 for inhibition of CK2 in vitro (CK2 [3]): Nqo1 is not required
SMILES: O=C(O)c1ccc2c(c1)nc(Nc1cccc(Cl)c1)c1ccncc12 [CX4945, 5-[(3-Chlorophenyl)amino]benzo[c]-2,6-naphthyridine-8-carboxylic acid, reference compound]
potency and selectivity as NQO1-dependent CK2 inhibitor (SAR, relative to ML329) (CK2 [1]): more potent and selective NQO1-dependent CK2 inhibitors
